Source: US9944752B2, “Block copolymers for stable micelles” (Intezyne Technologies, Inc., priority 2012, dated 2018)

Legend:
A549 lung cancer cells = assay: In-vitro cytotoxicity of aminopterin formulations (cell titer-glo); format: cell-based; conditions: Homo sapiens, A549, 72 h, read-out: IC50 (cell viability inhibited by 50%)
Protocol: (§1) Cells originally purchased from ATCC (A549, Panc-1, OVCAR3, and BXPC-3) were seeded in 96 well tissue culture plates to be 50% confluent by 24 hours. Cells were incubated at 37° C. with 5.0% CO2. Cells were treated with escalating doses of free aminopterin, crosslinked aminopterin formulation, uncrosslinked aminopterin formulation, and non drug-loaded micelle formulations 24 hours after plate seeding. Free aminopterin was dissolved in DMSO and administered to cells with a total volume of DMSO equal to or less than 0.0025%. Micelle formulations were re-suspended in biology grade water. Dilutions were done in deep well plates with cell media and water or DMSO (for free aminopterin only) equalizing displaced volume. Incubation media was aspirated from the 96 well plates and 100 μl of each dilution was added to the wells in triplicate and incubated over 72 hours at 37° C. with 5.0% CO2. Crosslinked and uncrosslinked non drug-loaded micelle formulations were administered at the four highest doses and were calculated at comparative mg/ml concentrations to drug-loaded micelle concentrations of delivery vehicle. […] Plates were briefly shaken to mix and luminescence readings were read on a plate reader. Luminescence reading for triplicate doses are averaged and divided by average luminescence readings from untreated cells on the same plate to calculate the % of viable cells per dose. […]

[1] = test system: PANC-1 pancreatic (folate receptor +) cancer cells; assay: as above; format: cell-based; conditions: Homo sapiens, PANC-1, 72 h, read-out: IC50 (cell viability inhibited by 50%)
Protocol: as §1

[2] = Rat pharmacokinetics of crosslinked cabizataxel micelles; parameters: species or system Fisher rats; conditions: Fisher, in vivo, iv, 5 mg/kg
Source text: The delivery vehicle for drug administration was isotonic saline.

[3] = parameters: species or system Fisher rats; conditions: Fisher, rat, in vivo, iv, 10 mg/kg
Protocol: The delivery vehicle for drug administration was isotonic saline. […] Samples were analyzed on a Waters Alliance 2695 equipped with a 2475 fluorescence detector (Ex=470 nm; Em=580). A 5 μL sample injection was made onto a Waters 4 μm Nova Pak C18 (3.9×150 mm) at 30° C. with a flow rate of 0.750 mL per minute of 10 mM phosphate buffer (pH=1.4), methanol and acetonitrile (gradient from 70/10/20 to 40/10/50 for buffer/methanol/acetonitrile was made over eight minutes). Analyte eluted at 5.9 minutes under these conditions, was normalized to the internal standard, and quantitated using a standard curve comprised of seven standards.

Q: With `Nc1nc(N)c2nc(CNc3ccc(C(=O)N[C@@H](CCC(=O)O)C(=O)O)cc3)cnc2n1` [Aminopterin, aminopterin] as the compound, how does the IC50 (A549 lung cancer cells) read?
A: 7 to 25 nM

Q: What about the IC50 [1] of the same compound?
A: 7 to 25 nM

Q: For `CO[C@H]1C(=O)[C@]2(C)[C@@H](OC)C[C@H]3OC[C@@]3(OC(C)=O)[C@H]2[C@H](OC(=O)c2ccccc2)[C@]2(O)C[C@H](OC(=O)[C@H](O)[C@@H](NC(=O)OC(C)(C)C)c3ccccc3)C(C)=C1C2(C)C` [free cabizataxel, cabazitaxel], which Exposure of cabazitaxel to the plasma compartment over 15 minutes [2] is on record?
A: 200 ng·h/mL

Q: With `COc1cccc2c1C(=O)c1c(O)c3c(c(O)c1C2=O)C[C@@](O)(C(C)=O)C[C@@H]3O[C@H]1C[C@H](N)[C@H](O)[C@H](C)O1` [free daunorubicin, daunorubicin] as the compound, how does the CMax [3] read?
A: 3.3 µg/mL

Q: And the Half-life [3]?
A: 3.3 h
